{"source": "patent US10729668B2", "about": "“Ketobutyrate compounds and compositions for treating age-related symptoms and diseases” (The Regents of the University of California, priority 2014, dated 2020)", "test_system": "NADH dehydrogenase (Complex I)", "assay": "NADH dehydrogenase (Complex I) driven coupling assay, isolated liver mitochondria (pyruvate and malate)", "type": "biochemical, mouse", "details": "respiration driven by pyruvate and malate", "experimental": "Animal studies were performed under approved UCLA animal research protocols. Mitochondria from 3-month-old C57BL/6 mice were isolated. Briefly, livers were extracted, minced at 4° C. in MSHE+BSA (70 mM sucrose, 210 mM mannitol, 5 mM HEPES, 1 mM EGTA, and 0.5% fatty acid free BSA, pH 7.2), and rinsed several times to remove blood. All subsequent steps were performed on ice or at 4° C. The tissue was disrupted in 10 volumes of MSHE+BSA with a glass Dounce homogenizer (5-6 strokes) and the homogenate was centrifuged at 800×g for 10 minutes to remove tissue debris and nuclei. The supernatant was decanted through a cell strainer and centrifuged at 8,000×g for 10 minutes. The dark mitochondrial pellet was resuspended in MSHE+BSA and re-centrifuged at 8,000×g for 10 minutes. The final mitochondrial pellet was resuspended in 30 μl of MAS buffer (70 mM sucrose, 220 mM mannitol, 10 mM KH2PO4, 5 mM MgCl2, 2 mM HEPES, 1 mM EGTA, and 0.2% fatty acid free BSA, pH 7.2). Isolated mitochondrial respiration was measured by running coupling and electron flow assays as described. […]\nMitochondrial respiration was measured by running coupling and electron flow assays. […]"}
{"smiles": "CCC(=O)C(=O)O", "note": "[α-KB, α-ketobutyrate]", "values": [{"measurement": "ADP-induced and FCCP-induced respiration", "result": "significant decrease"}]}
